The subject of data set [1] is NIH/3T3 cells. The experiment in a line: NIH/3T3 cell morphology assay (actin cytoskeleton disruption). The format is cell-based. The following applies: score 0 (no effect) to 4 (complete disruption) of the actin cytoskeleton; 60 minutes. On the procedure: NIH/3T3 cells were grown in DMEM-H containing glutamine and 10% Colorado Calf Serum. Cells were passaged regularly prior to reaching confluence. Eighteen to 24 hours prior to experimentation, the cells were plated onto Poly-L-Lysine-coated glass bottom 24-well plates. On the day of experimentation, the cell culture medium was removed and was replaced with the same medium containing from 10 nM to 25 μM of the test compound, and the cells were incubated for 60 minutes at 37° C. The culture medium was then removed and the cells were washed with warmed PBS and fixed for 10 minutes with warmed 4% paraformaldehyde. The cells were permeabilized with 0.5% Triton-X, stained with TRITC-conjugated phalloidin and imaged using a Nikon Eclipse E600 epifluorescent microscope to determine the degree of actin disruption. Results were expressed as a numerical score indicating the observed degree of disruption of the actin cytoskeleton at the test concentration, ranging from 0 (no effect) to 4 (complete disruption), and were the average of at least 2 determinations.

A short description of data set [2]: Compound plasma concentrations in unsensitized mice at 15 min post administration. The format is in vivo. To be noted: mouse, 15 μmol/kg; mean compound plasma concentration in mice at 15 minutes post oral administration; read-out: Mouse Oral PK.
The test system of data set [3] is human neutrophils. Briefly: Human neutrophil chemotaxis induced by fMLP (modified Boyden chamber). The format is cell-based. From the text:
This assay is an in vitro assay of neutrophil chemotaxis that can be used to evaluate the ability of Rho Kinase inhibitor compounds of Formula I or II to inhibit the migration of human neutrophils, an inflammatory cell that has been implicated in the pathophysiology of allergic conjunctivitis.
Peripheral blood from healthy human volunteers was collected and the neutrophils were isolated by Ficoll-paque density centrifugation followed by dextran sedimentation and hypotonic lysis of the red blood cells. Neutrophil chemotaxis was assessed using a modified Boyden Chamber (Neuroprobe, 96-well) with a 3 μm pore polycarbonate membrane. The ability of the tested compounds to block chemotaxis induced by a 1 μM fMLP challenge during a one hour incubation at 37° C. with 5% CO2 was assessed in a dose response manner.

Data set [4] has as its target T1, ROCK1 (Homo sapiens, UniProt Q13464).
T1 construct: purchased Upstate/Chemicon 14-601
The experiment in a line: Rho kinase inhibition assay (IMAP fluorescence polarization), ROCK1.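 Further: kinase reaction run 60 min at room temperature, then phosphorylated substrate captured on IMAP beads for 30 min, with fluorescence polarization read in mP.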 The format is biochemical. (In general: Fluorescence polarisation rises when a labelled molecule tumbles more slowly, as on binding a larger partner.)
Procedure: (§1) Following the pre-incubation, 10 μM ATP was added to initiate the reaction. After 60 minutes at room temperature, Molecular Devices IMAP™ binding solution was added to bind phosphorylated substrate. After 30 minutes of incubation in the presence of the IMAP™ beads, the fluorescence polarization was read and the ratio was reported as mP. IC50 values for compounds and EC50 values for ATP were calculated using the Prism software from Graphpad.

Data set [5] concerns the target T2, Akt3 human enzyme (Homo sapiens, UniProt Q9Y243).
T2 construct: purchased Upstate Chemicon 14-502
Briefly: Akt3 inhibition assay (IMAP FP).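 Further: kinase reaction run 60 min at room temperature after 30 µM ATP start, phosphorylated substrate captured on IMAP beads and read as fluorescence polarization (mP).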 The format is biochemical.

Data set [6] deals with A-10 rat thoracic aorta cells. The experiment in a line: PDGF-stimulated smooth muscle cell proliferation assay (BrdU incorporation).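 On all read-outs here: cells kept in serum-free medium, BrdU allowed to incorporate for 24 h, then incorporated label detected fluorometrically with an anti-BrdU antibody.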 The format is cell-based. The following applies: A-10 cells, 10 ng/mL PDGF, BrdU incorporation, percent of total challenge-stimulated proliferation; for Percent of PDGF Induced Proliferation at 1 μM Avg: 1 μM test compound; for Percent of PDGF Induced Proliferation at 10 μM Avg: 10 μM test compound. (In general: Dividing cells build labelled thymidine or BrdU into new DNA.)

Data set [7] deals with T3, p70S6K human enzyme (Homo sapiens, UniProt P23443, T412E).
T3 construct: purchased Upstate Chemicon 14-486
Briefly: p70S6K inhibition assay (IMAP FP).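 Further: kinase reaction run at room temperature, phosphorylated substrate captured on IMAP beads and read as fluorescence polarization in mP, IC50 then converted to Ki.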 The format is biochemical.

Data set [8] concerns the target T4, ROCK2 (Homo sapiens, UniProt O75116).
T4 construct: purchased Upstate/Chemicon 14-451
The experiment in a line: Rho kinase inhibition assay (IMAP fluorescence polarization), ROCK2.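 Further: kinase reaction started with 10 µM ATP and run 60 min at room temperature, then phosphorylated substrate captured on IMAP beads for 30 min and fluorescence polarization read in mP.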 The format is biochemical.
Procedure: as §1

A short description of data set [9]: Rat oral pharmacokinetics (plasma). The format is in vivo. The following applies: 20-30 μmol/kg.
Procedure: Plasma (EDTA K2 anticoagulant) was collected from male, cannulated, CD Sprague Dawley rats to determine the pharmacokinetics of formulations containing compound inhibitors of Rho kinase. Each animal was dosed orally with a 4 ml/kg solution or suspension of each test compound in 10 mM acetate buffered saline, pH 4.5 at a final concentration range of 20-30 μmol/kg. Blood was collected at 0.25, 0.5, 1, 2, 4, 6, 8, and 24 hours. Plasma samples were assayed for the concentration of the test compound using an on-line, solid phase extraction LC/MS/MS analysis system.
Samples were analyzed on a QSTAR Elite, hybrid quadrupole time-of-flight mass spectrometer (Applied Biosystems, Framingham, Mass.) coupled with a Symbiosis Pharma integrated, on-line SPE-HPLC system (Spark Holland Inc., Plainsboro, N.J.). Analyst QS 2.0 software was used for instrument control, data acquisition and processing. […] Mobile Phase A consisted of 0.1% ammonium hydroxide in water and Mobile Phase B consisted of 0.1% formic acid in acetonitrile. Pharmacokinetic analyses were performed using WinNonlin software version 5.2 (Pharsight Corporation, Mountain View, Calif.).
As determined from the plasma concentration versus time curves, the time to peak and peak exposure are represented by the values Tmax and Cmax, respectively. The AUC values (nM*hr) shown were calculated as the areas under the plasma concentration versus time curves from time zero through the time of the last observable value and represent the total exposure of the compound over the course of the study. Half-life values or the amount of time required for the plasma levels of the compound to decline to half the initial value are represented as t½.
Setting [10] is: Neutrophil, 1 h, 1 μM fMLP challenge, one hour, read-out: Chemotaxis Avg. IC50.
Where [11] appears, read: 30 μM ATP, Ki=IC50/(1+([ATP Challenge]/EC50 ATP)), read-out: Akt3 Ki, Avg.
Where [12] appears, read: 30 μM ATP, Ki=IC50/(1+([ATP Challenge]/EC50 ATP)), read-out: p70S6K Ki, Avg.
Setting [13] is: average Ki, read-out: p70S6K Ki.
[14] abbreviates: 10 μM ATP, read-out: ROCK2 Ki, Avg.

These results are taken from patent US20090325959A1 (priority 2008, published 2009).

Read-outs that look alike come from different tables or passages of the source.

T4 sequence (O75116 11-552 limits assumed): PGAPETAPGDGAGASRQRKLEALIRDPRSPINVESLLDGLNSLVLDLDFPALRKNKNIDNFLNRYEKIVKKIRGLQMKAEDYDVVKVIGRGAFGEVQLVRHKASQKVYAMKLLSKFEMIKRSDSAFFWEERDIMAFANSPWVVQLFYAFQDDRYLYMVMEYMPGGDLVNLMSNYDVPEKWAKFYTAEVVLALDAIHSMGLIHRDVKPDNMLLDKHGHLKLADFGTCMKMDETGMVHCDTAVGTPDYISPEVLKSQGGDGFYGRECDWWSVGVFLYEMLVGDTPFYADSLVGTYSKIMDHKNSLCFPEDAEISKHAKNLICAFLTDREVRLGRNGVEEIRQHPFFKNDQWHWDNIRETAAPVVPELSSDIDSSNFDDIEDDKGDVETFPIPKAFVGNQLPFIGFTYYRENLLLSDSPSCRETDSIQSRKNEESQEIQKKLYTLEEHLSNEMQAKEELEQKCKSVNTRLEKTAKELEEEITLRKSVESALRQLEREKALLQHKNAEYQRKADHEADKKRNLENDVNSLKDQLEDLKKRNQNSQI
T2 sequence (Q9Y243 whole entry): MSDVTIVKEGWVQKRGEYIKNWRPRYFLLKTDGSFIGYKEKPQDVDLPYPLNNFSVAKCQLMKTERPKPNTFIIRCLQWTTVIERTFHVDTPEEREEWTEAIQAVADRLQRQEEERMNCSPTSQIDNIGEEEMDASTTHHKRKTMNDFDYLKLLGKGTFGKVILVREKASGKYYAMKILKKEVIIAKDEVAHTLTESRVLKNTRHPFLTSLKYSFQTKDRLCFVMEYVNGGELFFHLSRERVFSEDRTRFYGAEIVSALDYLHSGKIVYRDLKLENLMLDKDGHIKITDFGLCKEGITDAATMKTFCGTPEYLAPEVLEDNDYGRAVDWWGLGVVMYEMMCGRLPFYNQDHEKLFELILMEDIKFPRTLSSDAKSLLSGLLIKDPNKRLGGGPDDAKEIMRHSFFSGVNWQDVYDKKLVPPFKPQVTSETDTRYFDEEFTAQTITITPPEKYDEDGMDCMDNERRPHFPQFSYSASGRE
T3 sequence (P23443 1-421 T412E limits assumed): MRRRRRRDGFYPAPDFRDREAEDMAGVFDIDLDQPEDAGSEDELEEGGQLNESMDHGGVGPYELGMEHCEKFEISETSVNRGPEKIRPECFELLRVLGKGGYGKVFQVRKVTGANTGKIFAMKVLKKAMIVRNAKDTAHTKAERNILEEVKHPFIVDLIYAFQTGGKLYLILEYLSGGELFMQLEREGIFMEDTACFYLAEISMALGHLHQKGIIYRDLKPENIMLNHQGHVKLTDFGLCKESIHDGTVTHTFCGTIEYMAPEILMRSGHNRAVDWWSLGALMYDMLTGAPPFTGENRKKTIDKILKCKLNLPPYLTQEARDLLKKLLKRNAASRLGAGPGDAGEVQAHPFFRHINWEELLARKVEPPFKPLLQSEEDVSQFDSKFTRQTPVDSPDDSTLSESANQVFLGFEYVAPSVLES
T1 sequence (Q13464 17-535 limits assumed): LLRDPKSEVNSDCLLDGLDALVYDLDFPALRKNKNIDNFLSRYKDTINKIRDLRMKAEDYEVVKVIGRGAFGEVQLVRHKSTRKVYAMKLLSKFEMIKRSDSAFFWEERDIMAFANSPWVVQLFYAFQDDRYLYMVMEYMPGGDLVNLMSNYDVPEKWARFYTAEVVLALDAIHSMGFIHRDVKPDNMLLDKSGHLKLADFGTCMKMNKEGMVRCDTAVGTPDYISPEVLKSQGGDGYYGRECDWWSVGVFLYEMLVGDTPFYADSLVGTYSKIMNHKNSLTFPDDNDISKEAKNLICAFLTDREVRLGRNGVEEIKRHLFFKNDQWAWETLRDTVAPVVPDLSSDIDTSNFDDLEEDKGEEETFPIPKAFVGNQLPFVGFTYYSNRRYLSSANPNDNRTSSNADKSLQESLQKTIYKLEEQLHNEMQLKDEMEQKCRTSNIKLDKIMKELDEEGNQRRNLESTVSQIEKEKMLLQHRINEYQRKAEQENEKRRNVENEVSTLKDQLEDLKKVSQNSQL

On to `OCc1ccc(CN2CCCC(Nc3ccc4[nH]ncc4c3)C2)cc1` (stereo not shown) [Compound 1.025, (4-((3-(1H-indazol-5-ylamino)piperidin-1-yl)methyl)phenyl)methanol], for which the “Cell score at 1 μM” value in [1] came out at 2.
Still for that read-out and setting: for `Cc1cccc(CN2CCCC(Nc3ccc4[nH]ncc4c3)C2)c1` (stereo not shown) [Compound 1.066, N-(1-(3-methylbenzyl)piperidin-3-yl)-1H-indazol-5-amine] the value was 2.
As for `CCS(=O)(=O)Nc1cccc(CN2CCC[C@H](Nc3ccc4[nH]ncc4c3)C2)c1` [Compound 1.124, (S)-N-(3-((3-(1H-indazol-5-ylamino)piperidin-1-yl)methyl)phenyl)ethanesulfonamide], the concentration at 15 min in data set [2] amounted to 118 nM. Also, the IC50 (commonly the concentration needed to halve the response being measured) in data set [3] (setting [10]) is 3400 nM; in [3] (average IC50 for inhibition of fMLP-induced neutrophil chemotaxis, read-out: Chemotaxis IC50), 3400 nM. Besides, the Ki (usually a dissociation constant, usually derived from enzyme kinetics or from competition with a known ligand) turned out to be 64.5 nM in data set [4] (Avg, 10 μM ATP); 64.5 nM in data set [4] (average Ki); 7870 nM in data set [5] (setting [11]); 7870 nM in [5] (average Ki, read-out: Akt3 Ki); 3330 nM in data set [7] (setting [12]); 3330 nM in data set [7] (setting [13]). Further, the Ki was 3.3 nM in [8] (setting [14]) and 3.3 nM in data set [8] (average Ki, read-out: ROCK2 Ki). For the same molecule, the “Percent of PDGF Induced Proliferation at 1 μM Avg” value in [6] is listed as 68.5%. Besides, the “Percent of PDGF Induced Proliferation at 10 μM Avg” value in data set [6] worked out at 61.6%. The same molecule came in with a Vz_F in data set [9] (mean n = 3) of 93.4 L/kg. Besides, the AUC(0-t) (in general, exposure summed from dosing to a finite time, without extrapolation to infinity) in [9] (male, CD Sprague Dawley, mean n = 3) was found to be 0.535 µM·h. Also, the Cmax – broadly, the highest concentration seen after dosing – in [9] (male, CD Sprague Dawley, mean n = 3, read-out: Cmax) was 415 nM. Moreover, in [9] (male, CD Sprague Dawley, mean n = 3, read-out: Tmax), the Tmax (usually the time from dosing to the highest level) was found to be 30 min. Besides, the half-life in data set [9] (male, CD Sprague Dawley, mean n = 3, read-out: t½ (converted)) is 83.4 min.
Turning to `CS(=O)(=O)Cc1cccc(CN2CCCC(Nc3ccc4[nH]ncc4c3)C2)c1` (stereo not shown) [Compound 1.041, N-(1-(3-(methylsulfonylmethyl)benzyl)piperidin-3-yl)-1H-indazol-5-amine], the “Cell score at 1 μM” value in data set [1] amounted to 2.5.
In the case of `Oc1cccc(CN2CCCC(Nc3ccc4[nH]ncc4c3)C2)c1` (stereo not shown) [Compound 1.046, 3-((3-(1H-indazol-5-ylamino)piperidin-1-yl)methyl)phenol], the “Cell score at 1 μM” value in data set [1] amounted to 2.5.
On to `COc1ccc(CN2CCC(Nc3cccc4cnccc34)C2)cc1` (stereo not shown) [Compound 2.017, N-(1-(4-methoxybenzyl)pyrrolidin-3-yl)isoquinolin-5-amine], for which the “Cell score at 1 μM” value in data set [1] is given as 2.
For `FC(F)(F)c1cccc(CN2CCC(Nc3cccc4cnccc34)C2)c1` (stereo not shown) [Compound 2.018, N-(1-(3-(trifluoromethyl)benzyl)pyrrolidin-3-yl)isoquinolin-5-amine], the “Cell score at 1 μM” value in [1] is listed as 1.8.
On to `CSc1ccc(CN2CCCC(Nc3ccc4[nH]ncc4c3)C2)cc1` (stereo not shown) [Compound 1.008, N-(1-(4-(methylthio)benzyl)piperidin-3-yl)-1H-indazol-5-amine], for which the Ki in data set [4] (Avg, 10 μM ATP) is 30.5 nM; in data set [8] (setting [14]), 3.9 nM. The “Cell score at 1 μM” value in data set [1] is listed as 2.
As to `Cc1ccc(CN2CCCC(Nc3ccc4[nH]ncc4c3)C2)c(C)c1` (stereo not shown) [Compound 1.024, N-(1-(2,4-dimethylbenzyl)piperidin-3-yl)-1H-indazol-5-amine], the “Cell score at 1 μM” value in [1] is on record as 2.4.
For `Clc1ccc(CN2CCC(Nc3cccc4cnccc34)C2)cc1Cl` (stereo not shown) [Compound 2.016, N-(1-(3,4-dichlorobenzyl)pyrrolidin-3-yl)isoquinolin-5-amine], the Ki came out at 101 nM in [4] (Avg, 10 μM ATP) and 42.4 nM in data set [8] (setting [14]). The “Cell score at 1 μM” value in data set [1] was 1.8.
As for `OCCOc1cccc(CN2CCCC(Nc3ccc4[nH]ncc4c3)C2)c1` (stereo not shown) [Compound 1.039, 2-(3-((3-(1H-indazol-5-ylamino)piperidin-1-yl)methyl)phenoxy)ethanol], the Ki in data set [4] (Avg, 10 μM ATP) came to 209 nM; in data set [8] (setting [14]) it was 24.7 nM. Moreover, the “Cell score at 1 μM” value in data set [1] worked out at 2.
For `C#Cc1ccc(CN2CCCC(Nc3ccc4[nH]ncc4c3)C2)cc1` (stereo not shown) [Compound 1.034, N-(1-(4-ethynylbenzyl)piperidin-3-yl)-1H-indazol-5-amine], the IC50 in data set [3] (setting [10]) is 5600 nM. Also, the Ki in data set [4] (Avg, 10 μM ATP) amounted to 36 nM; in [8] (setting [14]) it was 5.3 nM. The “Cell score at 1 μM” value in [1] is recorded as 2.
For the molecule `c1ccc(CN2CCC(Nc3cccc4cnccc34)C2)cc1` (stereo not shown) [Compound 2.006, N-(1-benzylpyrrolidin-3-yl)isoguinolin-5-amine], the “Cell score at 1 μM” value in data set [1] came to 2.8.
Regarding `CS(=O)(=O)c1ccc(CN2CCC(Nc3ccc4[nH]ncc4c3)C2)cc1` (stereo not shown) [Compound 1.004, N-(1-(4-(methylsulfonyl)benzyl)pyrrolidin-3-yl)-1H-indazol-5-amine], the “Cell score at 1 μM” value in data set [1] amounted to 1.8.
Same read-out and setting: for `CS(=O)(=O)c1cccc(CN2CCCC(Nc3ccc4[nH]ncc4c3)C2)c1` (stereo not shown) [Compound 1.048, N-(1-(3-(methylsulfonyl)benzyl)piperidin-3-yl)-1H-indazol-5-amine] the value was 1.5; for `c1cc2cc(CN3CCCC(Nc4ccc5[nH]ncc5c4)C3)ccc2o1` (stereo not shown) [Compound 1.052, N-(1-(benzofuran-5-ylmethyl)piperidin-3-yl)-1H-indazol-5-amine], 2.8.
In the case of `CSc1ccc(CN2CC[C@@H](Nc3cccc4cnccc34)C2)cc1` [Compound 2.026, (R)-N-(1-(4-(methylthio)benzyl)pyrrolidin-3-yl)isoquinolin-5-amine], the concentration at 15 min in data set [2] amounted to 629 nM. Also, the IC50 in data set [3] (Neutrophil, 1 h, read-out: Chemotaxis Avg. IC50) amounted to 3800 nM; in data set [3] (Neutrophil, read-out: Chemotaxis IC50), 3800 nM. The Ki in data set [4] (Avg, 10 μM ATP) came out at 38 nM; in [4] (average Ki), 38 nM; in [5] (setting [11]) it was 2080 nM; in [5] (average Ki, read-out: Akt3 Ki), 2080 nM; in [7] (setting [12]), 536 nM; in data set [7] (setting [13]) it was 536 nM. The Ki was 13 nM in [8] (setting [14]) and 13 nM in [8] (average Ki, read-out: ROCK2 Ki). Moreover, the “Percent of PDGF Induced Proliferation at 1 μM Avg” value in [6] is given as 74.5%. Moreover, in [6], the “Percent of PDGF Induced Proliferation at 10 μM Avg” value stood at 52.0%. For the same molecule, in [9] (mean n = 3), the “AUC (0-last)” value was “BLQ”. Besides, the Cmax entry in data set [9] (mean n = 3) was “BLQ”. Besides, in data set [9] (mean n = 3), the Tmax entry is “BLQ”. The Vz_F entry in [9] (mean n = 3) was “BLQ”. Moreover, the t½ result in [9] (mean n = 3) was “BLQ”.
Take `Clc1ccc(CN2CCC(Nc3ccc4[nH]ncc4c3)C2)cc1Cl` (stereo not shown) [Compound 1.062, N-(1-(3,4-dichlorobenzyl)pyrrolidin-3-yl)-1H-indazol-5-amine]: the “Cell score at 1 μM” value in data set [1] is 2.3.
With `CS(=O)(=O)Nc1cccc(CN2CCCC(Nc3ccc4[nH]ncc4c3)C2)c1` (stereo not shown) [Compound 1.051, N-(3-((3-(1H-indazol-5-ylamino)piperidin-1-yl)methyl)phenyl)methanesulfonamide], the inhibitory constant (Ki) in data set [4] (Avg, 10 μM ATP) came to 37.2 nM; in data set [8] (setting [14]), 3.8 nM. Also, the “Cell score at 1 μM” value in data set [1] was found to be 2.5.
